Earlier results on one compound are cited in patent US11903950B2, “BCL-2 inhibitors” (Newave Pharmaceutical Inc., priority 2018, dated 2024).

Data set [1] concerns circulating platelets. Particulars: clinical trial, patients.
Data set [2] has as its system xenograft models of small-cell lung cancer and acute lymphoblastic leukemia. Particulars: oral administration, alone.

As to `CC1(C)CCC(c2ccc(Cl)cc2)=C(CN2CCN(c3ccc(C(=O)NS(=O)(=O)c4ccc(N[C@H](CCN5CCOCC5)CSc5ccccc5)c(S(=O)(=O)C(F)(F)F)c4)cc3)CC2)C1` [ABT-263], in data set [1], the “number of circulating platelets” value is listed as “rapid, concentration-dependent decrease in the number of circulating platelets”. For the same compound, the tumor regression entry in data set [2] is “complete tumor regressions”.
